This note sets out measurements from ChEMBL document CHEMBL3232825 (J Med Chem, 2014).

≈ marks a conversion by molar mass, not a printed value.

Series [1] concerns the target T1, Heat shock protein HSP 90-beta (Homo sapiens, UniProt P08238).
A further series deals with Endoplasmin (Homo sapiens, UniProt P14625).
In series [2] the target is T2, Heat shock protein 75 kDa, mitochondrial (Homo sapiens, UniProt Q12931).
T2 sequence (Q12931 whole entry): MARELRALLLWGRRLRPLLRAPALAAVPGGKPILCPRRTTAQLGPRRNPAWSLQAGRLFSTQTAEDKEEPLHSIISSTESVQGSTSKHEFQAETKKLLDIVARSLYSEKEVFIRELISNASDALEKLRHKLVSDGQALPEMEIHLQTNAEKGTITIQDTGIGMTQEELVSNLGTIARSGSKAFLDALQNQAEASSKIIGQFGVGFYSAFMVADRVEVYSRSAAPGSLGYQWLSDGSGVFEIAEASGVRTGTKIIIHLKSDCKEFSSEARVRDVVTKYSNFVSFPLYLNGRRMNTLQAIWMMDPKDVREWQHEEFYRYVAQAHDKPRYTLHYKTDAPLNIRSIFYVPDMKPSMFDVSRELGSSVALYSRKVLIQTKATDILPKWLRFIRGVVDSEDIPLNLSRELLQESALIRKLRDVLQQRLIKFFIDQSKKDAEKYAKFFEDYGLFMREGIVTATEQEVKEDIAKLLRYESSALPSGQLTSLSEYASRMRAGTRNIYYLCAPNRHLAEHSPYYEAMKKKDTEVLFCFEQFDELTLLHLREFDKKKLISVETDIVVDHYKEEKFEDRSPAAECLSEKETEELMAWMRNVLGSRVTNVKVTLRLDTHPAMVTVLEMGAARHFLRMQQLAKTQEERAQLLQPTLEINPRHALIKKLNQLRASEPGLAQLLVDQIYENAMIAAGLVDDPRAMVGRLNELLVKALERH

Series [3] has as its target T1, Heat shock protein HSP 90-beta. This is another data set of the same source.
Series [4] is described as follows: Aqueous solubility of the compound at pH 7.4. The format is physicochemical.
Series [5] is described as follows: in vivo. The settings on record: Sprague-Dawley, rat, plasma, iv, 1 mg/kg.
The nature of series [6]: in vivo. The settings on record: Sprague-Dawley, rat, plasma, sc, 10 mg/kg.
Series [7] is described as follows: in vivo. The note with it: Sprague-Dawley, rat, iv, 1 mg/kg.
Series [8] in a line: in vivo. The settings on record: Sprague-Dawley, rat, iv, 1 mg/kg. The source holds these as a separate data set.
A short description of series [9]: in vivo. The note with it: Sprague-Dawley, rat, iv, 1 mg/kg. This is another data set of the same source.
Series [10] in a line: in vivo. The note with it: Sprague-Dawley, rat, sc, 10 mg/kg.
Series [11] in a line: in vivo. The note with it: Sprague-Dawley, rat, brain and plasma, sc, 10 mg/kg.

T1 sequence (P08238 whole entry): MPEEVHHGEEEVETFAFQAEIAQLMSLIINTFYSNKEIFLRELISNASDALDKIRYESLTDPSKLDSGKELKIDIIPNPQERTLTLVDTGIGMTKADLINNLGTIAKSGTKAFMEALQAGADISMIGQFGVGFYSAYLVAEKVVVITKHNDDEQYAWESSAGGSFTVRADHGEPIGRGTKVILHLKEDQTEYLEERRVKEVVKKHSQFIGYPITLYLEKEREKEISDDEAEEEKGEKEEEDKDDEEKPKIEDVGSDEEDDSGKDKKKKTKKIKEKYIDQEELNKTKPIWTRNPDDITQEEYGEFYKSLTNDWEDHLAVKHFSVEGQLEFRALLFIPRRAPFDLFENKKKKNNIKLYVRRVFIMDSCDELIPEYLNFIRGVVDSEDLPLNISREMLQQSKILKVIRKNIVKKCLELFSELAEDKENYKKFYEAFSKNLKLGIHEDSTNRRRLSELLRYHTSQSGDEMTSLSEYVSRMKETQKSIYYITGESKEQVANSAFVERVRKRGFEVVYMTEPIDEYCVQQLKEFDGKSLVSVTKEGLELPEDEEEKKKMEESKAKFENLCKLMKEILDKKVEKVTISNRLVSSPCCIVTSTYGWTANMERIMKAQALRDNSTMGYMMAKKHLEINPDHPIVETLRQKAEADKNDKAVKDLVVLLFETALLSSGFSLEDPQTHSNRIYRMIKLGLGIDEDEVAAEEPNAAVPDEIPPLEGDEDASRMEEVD
Sequence of Endoplasmin (P14625 whole entry): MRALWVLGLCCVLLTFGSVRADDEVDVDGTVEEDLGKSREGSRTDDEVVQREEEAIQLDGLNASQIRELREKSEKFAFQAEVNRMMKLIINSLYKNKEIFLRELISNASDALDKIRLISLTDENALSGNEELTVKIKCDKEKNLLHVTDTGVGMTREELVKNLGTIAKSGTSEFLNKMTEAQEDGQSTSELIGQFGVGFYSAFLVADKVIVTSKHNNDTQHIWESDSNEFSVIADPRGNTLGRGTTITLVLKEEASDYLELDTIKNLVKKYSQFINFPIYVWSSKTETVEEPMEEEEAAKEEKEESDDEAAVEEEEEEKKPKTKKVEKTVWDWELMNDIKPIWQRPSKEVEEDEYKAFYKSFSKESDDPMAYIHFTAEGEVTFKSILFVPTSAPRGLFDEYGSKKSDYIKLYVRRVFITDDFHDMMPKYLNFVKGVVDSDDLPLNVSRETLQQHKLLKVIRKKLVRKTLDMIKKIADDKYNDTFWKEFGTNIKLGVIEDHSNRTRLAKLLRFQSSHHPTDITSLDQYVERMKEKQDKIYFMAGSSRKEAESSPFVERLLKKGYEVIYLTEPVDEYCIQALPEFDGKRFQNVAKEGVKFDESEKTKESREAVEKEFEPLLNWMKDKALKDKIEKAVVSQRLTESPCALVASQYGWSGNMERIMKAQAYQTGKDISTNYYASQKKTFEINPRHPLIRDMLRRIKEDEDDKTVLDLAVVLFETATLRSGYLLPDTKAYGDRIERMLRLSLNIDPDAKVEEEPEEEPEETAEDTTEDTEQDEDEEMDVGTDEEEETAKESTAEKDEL

Usually Ki stands for the equilibrium dissociation constant of an inhibitor or competing ligand from its target. As a reminder, the IC50 is the concentration that gives 50% inhibition. The low end stands for higher potency, the high end for lower potency. With `Cc1cn(-c2cc3c(c(C4CCOCC4)c2)C(=O)NCC3)c2c1C(=O)CC(C)(C)C2`, the figures for the inhibitory constant (Ki) (in series [1]; on Endoplasmin; in series [2]) were 3 nM, 2400 nM and > 10000 nM, respectively. The same compound registered a concentration for half-maximal inhibition (IC50) in series [3] of 19 nM.
The like results for `COc1ccc(-c2cc(-n3cc(C)c4c3CC(C)(C)CC4=O)cc3c2C(=O)NCC3)cc1` were, in that order, 40 nM, > 10000 nM, > 10000 nM and 280 nM.
The like results for `CN1CCc2c3c(n(-c4ccc5c(c4)CNC5=O)c2C1)CC(C)(C)CC3=O` were, in that order, > 10000 nM, > 10000 nM, > 10000 nM and > 10000 nM.
For `Cc1cn(-c2cc3c(c(Cc4ccccc4)c2)C(=O)NCC3)c2c1C(=O)CC(C)(C)C2`, in that order: 120 nM, > 10000 nM, > 10000 nM and 480 nM.
On to `Cc1cn(-c2cc3c(c(-c4cccc(F)c4)c2)C(=O)NCC3)c2c1C(=O)CC(C)(C)C2`, for which the inhibition constant Ki in [1] is 20 nM; on Endoplasmin it was > 10000 nM; in series [2] it was > 10000 nM. For the same compound, 81 nM corresponded to half-maximal inhibition in series [3] (IC50).
The term solubility denotes the dissolved amount per volume that the medium holds. Turning to `CN1CCc2c3c(n(-c4ccc(C(N)=O)c(N[C@H]5CCOC5)c4)c2C1)CC(C)(C)CC3=O`, the solubility in series [4] was > 200 µM.
With `Cc1cn(-c2cc3c(c(-c4ccccc4)c2)C(=O)NCC3)c2c1C(=O)CC(C)(C)C2`, the inhibition constant Ki in [1] is 15 nM; at Endoplasmin it was > 10000 nM; in [2], > 10000 nM. In addition, the 50% inhibitory concentration (IC50) in [3] amounted to 230 nM.
In the case of `Cc1cn(-c2cc3c(c(C4CCC4)c2)C(=O)NCC3)c2c1C(=O)CC(C)(C)C2`, the inhibitory constant (Ki) in [1] is 39 nM; on Endoplasmin, > 10000 nM; in series [2] it was > 10000 nM. The compound also gave a concentration for half-maximal inhibition (IC50) in series [3] of 195 nM.
`Cc1cn(-c2cc3c(c(-c4ccc(F)cc4)c2)C(=O)NCC3)c2c1C(=O)CC(C)(C)C2`: the Ki was 10 nM in [1], > 10000 nM on Endoplasmin and > 10000 nM in series [2]. Further, half-maximal inhibition in series [3] (IC50) was put at 80 nM.
For the compound `Cc1cn(-c2cc3c(c(C(C)(C)C)c2)C(=O)NCC3)c2c1C(=O)CC(C)(C)C2`, the Ki was 140 nM in series [1], > 10000 nM on Endoplasmin and > 10000 nM in series [2]. In [3], this compound had a concentration for half-maximal inhibition (IC50) of 1700 nM.
For the compound `CCCCc1cc(-n2cc(C)c3c2CC(C)(C)CC3=O)cc2c1C(=O)NCC2`, the inhibition constant (Ki) is 56 nM in series [1], > 10000 nM at Endoplasmin and > 10000 nM in series [2]. In series [3], this compound showed an IC50 of 1000 nM.
In the case of `Cc1cn(-c2cc3c(c(C4CCCCC4)c2)C(=O)NCC3)c2c1C(=O)CC(C)(C)C2`, the Ki in [1] is 5 nM; at Endoplasmin, > 10000 nM; in series [2], > 10000 nM. The IC50 in series [3] worked out at 36 nM.
Consider `CN1CCc2c3c(n(-c4ccc5c(c4)CCCNC5=O)c2C1)CC(C)(C)CC3=O`, for which the Ki (in [1]; on Endoplasmin; in series [2]) was > 10000 nM in each case. Further, in series [3], the IC50 was > 10000 nM.
In turn, `CC1(C)CC(=O)c2c3c(n(-c4ccc(C(N)=O)c(N[C@H]5CCOC5)c4)c2C1)CCCC3` gave a solubility in series [4] of 27 µM (≈ 11.4 µg/mL). In series [1], the Ki amounted to 40 nM. The same compound yielded an IC50 in [3] of 530 nM.
As to `CC1(C)CC(=O)c2c(n(-c3ccc(C(N)=O)cc3)c3cnccc23)C1`, the inhibition constant (Ki) (in series [1]; at Endoplasmin; in series [2]) was > 10000 nM throughout.
With `CC1(C)CC(=O)c2c(n(-c3ccc(C(N)=O)cc3)c3cccnc23)C1`, the inhibition constant (Ki) (in [1]; at Endoplasmin; in series [2]) was > 10000 nM each time.
What is called AUC is the area under the concentration-time curve, a measure of exposure. As usually defined, the clearance is the rate of elimination divided by the concentration. As usually defined, the Vd is a proportionality between amount in the body and measured concentration, not a real space. A higher Vd goes with wide distribution into tissue. For orientation: half-life means how long it takes for the measured level to halve. Higher therefore signals slow loss. Usually Kp stands for the ratio of the level in a tissue or fluid to that in plasma or blood. Consider `Cc1cn(-c2cc3c(c(CC(C)C)c2)C(=O)NCC3)c2c1C(=O)CC(C)(C)C2`, for which the Ki (on Endoplasmin; in series [2]) was > 10000 nM each time. In addition, the AUC in the series “in vivo [5]” amounted to 640 ng·h/mL; in the series “in vivo [6]”, 3580 ng·h/mL. In the series “in vivo [7]”, this compound came in with a clearance of 25.7 mL/min/kg. The Vd in “in vivo [8]” turned out to be 4.08 L/kg. In addition, the half-life is 2.2 h in the series “in vivo [9]” and 11.6 h in the series “in vivo [10]”. In “in vivo [11]”, the Kp at 2 h stood at 0.5.
